Patent US12240859B2, “Turbinmicin compounds, compositions and uses thereof” (Wisconsin Alumni Research Foundation, priority 2019, dated 2025)
Values after ≈ are worked out from the molar mass of the structure shown. Where two headings read alike, the source gives them in different places.

What was measured:
[1] = Solubility of turbinmicin in aqueous solvents; assay type: physicochemical
Description: In some embodiments, the pharmaceutical composition comprises turbinmicin and a pharmaceutically acceptable carrier comprising aqueous DMSO, e.g., DMSO in water, DMSO in 0.9% saline or DMSO in phosphate buffered saline (e.g., about 0.01 to about 0.1 molar Na/K phosphate buffer, about pH 7.4). In some embodiments the amount of DMSO in aqueous solution varies from at least about 1% by weight to about 80% by weight. […]. As turbinmicin had limited aqueous solubility, various solubilizing conditions (Table 4) were tested.

C. tropicalis = assay: In vitro MIC susceptibility testing, broth microdilution; assay type: cell-based; conditions: Candida tropicalis
Description: In vitro MIC susceptibility testing. […] The plates were incubated at 33° C. for 72 h. The MICs were determined as the lowest concentration that inhibited visible growth. The MICs were read at 24, 48, and 72 hours, respectively.

A. fumigatus F11628 = assay: Neutropenic murine nasal aspiration pneumonia model of invasive pulmonary aspergillosis; assay type: in vivo, Aspergillus fumigatus
A. fumigatus = assay: Time kill experiments; assay type: cell-based, Aspergillus fumigatus; conditions: A. fumigatus as printed in b90 (FIG. 6C), 0-48 h
C. auris = assay: In vitro MIC susceptibility testing, broth microdilution; assay type: cell-based, Candida auris; conditions: Candidozyma auris
Description: In vitro MIC susceptibility testing. […]. Amphotericin B was used as a positive control and the MICs range were 0.25-1.5 μg/mL. Six untreated media controls were included on each plate. The plates were incubated at 33° C. for 72 h. The MICs were determined as the lowest concentration that inhibited visible growth. The MICs were read at 24, 48, and 72 hours, respectively. […]

C. albicans = assay: Time kill experiments; assay type: cell-based, Candida albicans; conditions: C. albicans (K-1, FIG. 6B), 1x to 16x MIC, 0-48 h
Description: FIGS. 6A-C show time-kill curves for turbinmicin against (6A) C. auris B11211, (6B) C. albicans K-1, and (6C) C. glabrata 4720.
Time Kill Experiments. Fresh Candida colonies from an overnight growth were added to normal saline and the turbidity was adjusted to a 0.6 transmittance at 530 nm to provide a standard suspension (1*10^6 CFU/mL). This suspension was diluted with RPMI 1640 medium buffered with MOPS and a standard compound stock solution to achieve a starting inoculum of approximately 10^5 CFU/ml. Each 20 mL culture (RPMI 1640 medium buffered with MOPS) was incubated at 35° C. with constant shaking, and 0.1 mL samples were withdrawn for the determination of fungal counts at 0, 2, 4, 6, 8, 24 and 48 h. Colony counts were determined by viable counts on sabouraud agar plate (SDA) after incubation for 48 h. Growth control for each organism were prepared without antifungal and run in parallel.

sheep red blood cells = assay: Hemolysis assay; assay type: cell-based; conditions: 1 h, concentrations exceeding the MIC by 1000-fold
Description: Hemolysis Assay. Assays were performed in 384-well plates using sheep blood (0.1% triton as the positive control). Sheep's blood (Ward's Science) was washed with PBS and diluted to a concentration of 6×10^7 red blood cells per ml. A volume of 50 μL of blood was incubated with compound for 1 h, and subsequently pelleted at 4000 rpm for 10 min. Thirty microliters of supernatant were transferred to a clear plate and OD570 was read. An increase in OD indicated the red blood cell lysis and hemolytic activity.

## C/C=C/C=C/C=C/C(=O)OC1C=CCC2C(=O)c3c(O)c4c5c(c3OC12)OCOC5CC1C(=O)c2cc(C)[nH]c(=O)c2C(=O)C41O (centres unmarked) [Turbinmicin, turbinmicin]
[1]; No. 2, DMSO (1% in PBS)
  Highest Turbmicin conc. Achieved: ≤0.5 mg/mL
[1]; No. 4, DMSO (10% in PBS)
  Highest Turbmicin conc. Achieved: 2 mg/mL
[1]; No. 5, PEG 400 (50% in PBS)
  Highest Turbmicin conc. Achieved: ≤0.5 mg/mL
[1]; No. 6, Kolliphor EL (10% in PBS)
  Highest Turbmicin conc. Achieved: ≤0.5 mg/mL
[1]; No. 7, Tween 80 (2% in PBS)
  Highest Turbmicin conc. Achieved: ≤0.5 mg/mL
[1]; aqueous with cosolvent or surfactant or cyclodextrin, mixtures of DMSO and water, read-out: concentration solubilized
  solubility: > 500 µg/mL
[1]; pH 7.4, aqueous buffer, No. 1, PBS, read-out: Highest Turbmicin conc. Achieved
  solubility: ≤ 500 µg/mL
[1]; pH 7.4, aqueous with cosolvent or surfactant or cyclodextrin, No. 3, DMSO (5% in PBS), read-out: Highest Turbmicin conc. Achieved
  solubility: ≤ 1000 µg/mL
[1]; water, read-out: water solubility
  solubility: < 500 µg/mL
C. tropicalis; ATCC750, strain ATCC 750
  MIC: 0.25 µg/mL (≈ 0.398 µM)
C. tropicalis; strain 001
  MIC: 0.5 µg/mL (≈ 0.797 µM)
C. tropicalis; strain 98-234
  MIC: 0.5 µg/mL (≈ 0.797 µM)
C. tropicalis; strain 1751
  MIC: 0.25 µg/mL (≈ 0.398 µM)
C. tropicalis; strain 2597
  MIC: 0.25 µg/mL (≈ 0.398 µM)
A. fumigatus F11628; mice, 0.25, 0.5 and 1 mg/kg IP every 6 hrs for 4 days, all three dosages
  survival: 100%
A. fumigatus F11628; mice, dose of 1 mg/kg IP every 6 hrs for 4 days
  CE/mL reduction of lung homogenate measured by qPCR: 1 log 10 CE/mL
A. fumigatus
  time-kill activity: Fungacidal activity was observed
C. auris; strain B11104
  MIC: 0.5 µg/mL (≈ 0.797 µM)
C. auris; strain B11203
  MIC: 0.5 µg/mL (≈ 0.797 µM)
C. auris; strain B11211, resistant to amphotericin B, fluconazole, micafungin, read-out: MIC
  MIC: 0.25 µg/mL (≈ 0.398 µM)
C. auris; strain B11219
  MIC: 0.25 µg/mL (≈ 0.398 µM)
C. auris; strain B11220
  MIC: 0.125 µg/mL (≈ 0.199 µM)
C. auris; strain B11221
  MIC: 0.5 µg/mL (≈ 0.797 µM)
C. auris; strain B11785
  MIC: 0.25 µg/mL (≈ 0.398 µM)
C. auris; strain B11799
  MIC: 0.5 µg/mL (≈ 0.797 µM)
C. auris; strain B11801
  MIC: 0.5 µg/mL (≈ 0.797 µM)
C. auris; strain B11804
  MIC: 0.5 µg/mL (≈ 0.797 µM)
C. albicans
  time-kill activity: Fungacidal activity was observed
Sheep red blood cells
  red blood cell toxicity (hemolysis): did not exhibit red blood cell toxicity
